The target of one test is T1, human EHMT2 913-1193 (Homo sapiens, UniProt Q96KQ7).
T1 construct: recombinant purified human EHMT2 913-1193, Viva; purchased Viva
T1 sequence (Q96KQ7 913-1193): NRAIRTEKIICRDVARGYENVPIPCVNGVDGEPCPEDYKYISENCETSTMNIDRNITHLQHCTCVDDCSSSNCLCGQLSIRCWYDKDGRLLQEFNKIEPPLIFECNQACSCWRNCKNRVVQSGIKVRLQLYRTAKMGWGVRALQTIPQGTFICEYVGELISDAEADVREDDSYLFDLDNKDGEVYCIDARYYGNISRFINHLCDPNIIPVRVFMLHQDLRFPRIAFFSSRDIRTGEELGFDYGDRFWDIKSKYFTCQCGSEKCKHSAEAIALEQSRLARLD
Put plainly: EHMT2 enzyme assay on histone peptide substrate (EHMT2 PEP). The class given is biochemical. Particulars: Table II; read-out: EHMT2 PEP (IC50 μM). The gist of the method: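 10-pt 3-fold series, 50 μM top final, 2% DMSO; 30 min preinc w/ 0.031 nM enzyme; pH 7.5 Bicine/TCEP buffer; ^3H-SAM + biotin-histone peptide, 60 min RT; SAM quench; streptavidin Flashplate capture, TopCount.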

A further test deals with T2, EHMT1 (Homo sapiens, UniProt Q9H9B1).
T2 sequence (Q9H9B1 1-1298): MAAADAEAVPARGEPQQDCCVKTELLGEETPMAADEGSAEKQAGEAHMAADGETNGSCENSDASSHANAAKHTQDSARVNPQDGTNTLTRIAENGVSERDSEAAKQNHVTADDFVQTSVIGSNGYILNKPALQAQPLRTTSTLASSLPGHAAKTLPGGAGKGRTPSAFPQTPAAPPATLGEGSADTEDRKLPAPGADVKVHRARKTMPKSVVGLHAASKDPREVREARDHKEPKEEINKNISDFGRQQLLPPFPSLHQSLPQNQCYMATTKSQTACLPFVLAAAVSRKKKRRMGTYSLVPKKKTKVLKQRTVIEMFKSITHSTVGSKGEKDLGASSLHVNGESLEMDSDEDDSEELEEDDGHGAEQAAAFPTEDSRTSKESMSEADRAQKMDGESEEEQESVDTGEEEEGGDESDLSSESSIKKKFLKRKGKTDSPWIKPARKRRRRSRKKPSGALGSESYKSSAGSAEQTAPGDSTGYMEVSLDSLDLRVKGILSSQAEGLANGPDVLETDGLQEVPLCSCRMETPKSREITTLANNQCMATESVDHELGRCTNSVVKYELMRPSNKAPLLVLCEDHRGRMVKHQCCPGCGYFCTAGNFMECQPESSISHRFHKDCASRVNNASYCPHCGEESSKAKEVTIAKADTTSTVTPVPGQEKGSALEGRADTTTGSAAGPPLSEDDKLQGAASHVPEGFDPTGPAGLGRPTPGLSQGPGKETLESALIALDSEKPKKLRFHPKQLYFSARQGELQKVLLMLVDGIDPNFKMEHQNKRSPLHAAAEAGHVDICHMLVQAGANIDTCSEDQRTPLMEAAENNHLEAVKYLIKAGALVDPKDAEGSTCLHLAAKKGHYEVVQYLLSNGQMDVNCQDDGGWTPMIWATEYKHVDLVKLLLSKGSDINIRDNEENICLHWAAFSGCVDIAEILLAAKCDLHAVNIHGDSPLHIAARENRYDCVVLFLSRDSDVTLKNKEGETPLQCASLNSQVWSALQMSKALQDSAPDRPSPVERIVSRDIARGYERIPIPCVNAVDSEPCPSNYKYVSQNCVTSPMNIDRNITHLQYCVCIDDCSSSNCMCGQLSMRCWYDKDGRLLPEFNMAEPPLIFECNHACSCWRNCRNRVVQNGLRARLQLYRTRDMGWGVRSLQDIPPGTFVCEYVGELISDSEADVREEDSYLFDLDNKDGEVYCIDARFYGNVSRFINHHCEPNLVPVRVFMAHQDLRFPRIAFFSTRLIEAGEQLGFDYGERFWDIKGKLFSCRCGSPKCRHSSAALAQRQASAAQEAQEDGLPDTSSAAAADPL
As to the kind of experiment: EHMT1 enzyme assay on peptide substrate (EHMT1 PEP). The class given is biochemical. To be noted: Table II; read-out: EHMT1 PEP (IC50 μM).

Structures can show the parent of a compound that is named as a salt. A value given as a limit tells only on which side of the number the result lay.

One may read the IC50 as the concentration needed to halve the response being measured. As for `COc1ccc(Nc2nccc(N3CCc4cn[nH]c4C3)n2)cc1OCCCN1CCCC1` [Compound 155], the IC50 on human EHMT2 913-1193 was 1 to 10 µM; at EHMT1 it was more than 10 µM.
Regarding `COc1ccc(Nc2nccc(N3CCC(O)CC3)n2)cc1OCCCN1CCCC1` [Compound 148], the values for the half-inhibitory concentration (IC50) on human EHMT2 913-1193 and on EHMT1 were 1 to 10 µM and more than 10 µM, respectively.
With `COc1ccc(Nc2cc(NCC3CCNCC3)ccn2)cc1OCCCN1CCCC1` [Compound 10, N^2-(4-methoxy-3-(3-(pyrrolidin-1-yl)propoxy)phenyl)-N^4-(piperidin-4-ylmethyl)pyridine-2,4-diamine], the IC50 is less than 0.1 µM on human EHMT2 913-1193 and 0.1 to 1 µM at EHMT1.
Regarding `COc1ccc(Nc2cncc(NCC3CCN(C(C)=O)CC3)c2)cc1OCCCN1CCCC1` [Compound 184], the IC50 on human EHMT2 913-1193 and on EHMT1 was more than 10 µM in each case.
Take `CC(=O)N1CCC(CNc2ccnc(Nc3ccc(C)c(OCCCN4CCCC4)c3)n2)CC1` [Compound 145]: the IC50 at human EHMT2 913-1193 and on EHMT1 was 1 to 10 µM each time.
Consider `COc1ccc(Nc2nccc(NCC3CCN(C(C)=O)CC3)n2)cc1OCC(C)CN1CCCC1` (stereo not shown) [Compound 183], for which the IC50 at human EHMT2 913-1193 and at EHMT1 was 1 to 10 µM in each case.
For the molecule `COc1ccc(Nc2nccc(N3CCC(NC(C)=O)CC3)n2)cc1OCCCN1CCCC1` [Compound 161], the IC50 on human EHMT2 913-1193 and at EHMT1 was more than 10 µM in each case.
Consider `COc1ccc(Nc2nccc(N3CCC(OC)CC3)n2)cc1OCCCN1CCCC1` [Compound 149], for which the half-maximal inhibitory concentration (IC50) on human EHMT2 913-1193 and at EHMT1 was more than 10 µM in each case.
Take `COCCN(C)c1ccnc(Nc2ccc(OC)c(OCCCN3CCCC3)c2)n1` [Compound 177]: the IC50 is 1 to 10 µM on human EHMT2 913-1193 and more than 10 µM at EHMT1.
Turning to `COc1ccc(Nc2nccc(N3CCC(C(C)(C)O)CC3)n2)cc1OCCCN1CCCC1` [Compound 147], the IC50 on human EHMT2 913-1193 and at EHMT1 was 1 to 10 µM in each case.
With `COc1ccc(Nc2nccc(N(C)Cc3cccnc3)n2)cc1OCCCN1CCCC1` [Compound 135], the IC50 at human EHMT2 913-1193 and on EHMT1 was 1 to 10 µM in each case.
Turning to `COc1ccc(Nc2nccc(N3CCN(c4ccccn4)CC3)n2)cc1OCCCN1CCCC1` [Compound 168], the half-inhibitory concentration (IC50) at human EHMT2 913-1193 and on EHMT1 was more than 10 µM each time.
For `COc1ccc(Nc2cc(CNC3CCNCC3)n(C)n2)cc1OCCCN1CCCC1` [Compound 126], the IC50 on human EHMT2 913-1193 and at EHMT1 was more than 10 µM in each case.
With `CNC(=O)c1cnc(Nc2ccc(OC)c(OCCCN3CCCC3)c2)nc1` [Compound 9, 2-((4-methoxy-3-(3-(pyrrolidin-1-yl)propoxy)phenyl)amino)-N-methylpyrimidine-5-carboxamide], the IC50 was 1 to 10 µM at human EHMT2 913-1193 and more than 10 µM on EHMT1.
For the molecule `COc1ccc(Nc2nccc(N3CCC(C(N)=O)CC3)n2)cc1OCCCN1CCCC1` [Compound 153], the IC50 at human EHMT2 913-1193 and on EHMT1 was 1 to 10 µM in each case.
As for `COc1ccc(Nc2nccc(N3CCCNC(=O)C3)n2)cc1OCCCN1CCCC1` [Compound 133], the IC50 is 1 to 10 µM on human EHMT2 913-1193 and more than 10 µM at EHMT1.
Take `COc1cnc(Nc2cc(NCC3CCN(C(C)=O)CC3)ccn2)cc1OCCCN1CCCC1` [Compound 182]: the IC50 on human EHMT2 913-1193 and at EHMT1 was 0.1 to 1 µM each time.
For the molecule `COc1ccc(Nc2ccnc(NCC3CCNCC3)n2)cc1OCCCN1CCCC1` [Compound 7, 4-N-[4-methoxy-3-[3-(pyrrolidin-1-yl)propoxy]phenyl]-2-N-(piperidin-4-ylmethyl)pyrimidine-2,4-diamine hydrochloride], the IC50 on human EHMT2 913-1193 and at EHMT1 was less than 0.1 µM each time.
For `CNc1nc(Nc2ccc(OC)c(OCCCN3CCCC3)c2)ncc1F` [Compound 187], the IC50 at human EHMT2 913-1193 and on EHMT1 was 1 to 10 µM each time.
For the molecule `COc1ccc(Nc2nccc(NCC3CCN(C(C)=O)CC3)n2)cc1OC(C)CCN1CCCC1` (stereo not shown) [Compound 195], the IC50 at human EHMT2 913-1193 and on EHMT1 was 1 to 10 µM each time.
`COc1ccc(Nc2nccc(N(C)CC3CCN(C(C)=O)CC3)n2)cc1OCCCN1CCCC1` [Compound 172]: the IC50 at human EHMT2 913-1193 and on EHMT1 was 1 to 10 µM throughout.
Consider `COc1ccc(Nc2nccc(N3CCCN(C(C)=O)CC3)n2)cc1OCCCN1CCCC1` [Compound 138], for which the results for the IC50 on human EHMT2 913-1193 and at EHMT1 were 1 to 10 µM and more than 10 µM, respectively.
On to `CNc1cccc(Nc2ccc(OC)c(OCCCN3CCCC3)c2)n1` [Compound 176], for which the IC50 on human EHMT2 913-1193 and on EHMT1 was more than 10 µM in each case.
For `CNc1cc(Nc2ccc(OC)c(OCCCN3CCCC3)c2)cnn1` [Compound 188], the IC50 at human EHMT2 913-1193 and at EHMT1 was 0.1 to 1 µM each time.
As to `COc1ccc(Nc2nccc(N3CC(C(N)=O)C3)n2)cc1OCCCN1CCCC1` [Compound 179], the IC50 at human EHMT2 913-1193 and at EHMT1 was more than 10 µM each time.
For the molecule `COc1ccc(Nc2nccc(NC3CCS(=O)(=O)CC3)n2)cc1OCCCN1CCCC1` [Compound 152], the IC50 on human EHMT2 913-1193 and at EHMT1 was 1 to 10 µM in each case.
With `COc1ccc(Nc2nccc(NCC3CCN(C(C)=O)CC3)n2)cc1OCCCNc1ccccc1` [Compound 160], the concentration for half-maximal inhibition (IC50) on human EHMT2 913-1193 and on EHMT1 was more than 10 µM each time.
As to `COc1ccc(Nc2nccc(OCC3CCN(C(C)=O)CC3)n2)cc1OCCCN1CCCC1` [Compound 14, 1-(4-(((2-((4-methoxy-3-(3-(pyrrolidin-1-yl)propoxy)phenyl)amino)pyrimidin-4-yl)oxy)methyl)piperidin-1-yl)ethan-1-one], the IC50 at human EHMT2 913-1193 and on EHMT1 was more than 10 µM in each case.
Turning to `COc1ccc(Nc2nc(NCC3CCNCC3)cc(N3CCCC3)n2)cc1OCCCN1CCCC1` [Compound 103], the 50% inhibitory concentration (IC50) at human EHMT2 913-1193 and at EHMT1 was 0.1 to 1 µM in each case.
Take `COc1ccc(Nc2nccc(N3CCNc4ccccc4C3)n2)cc1OCCCN1CCCC1` [Compound 154]: the IC50 at human EHMT2 913-1193 is 1 to 10 µM; on EHMT1, more than 10 µM.
In the same order, the values of `COc1ccc(Nc2nccc(N3CCc4nc[nH]c(=O)c4C3)n2)cc1OCCCN1CCCC1` [Compound 134] are more than 10 µM and more than 10 µM.
As to `CC(=O)N1CCC(CNc2ccnc(Nc3ccc(Cl)c(OCCCN4CCCC4)c3)n2)CC1` [Compound 8, 1-(4-(((2-((4-chloro-3-(3-(pyrrolidin-1-yl)propoxy)phenyl)amino)pyrimidin-4-yl)amino)methyl)piperidin-1-yl)ethan-1-one], the IC50 at human EHMT2 913-1193 and at EHMT1 was 0.1 to 1 µM each time.
In the case of `COc1ccc(Nc2nccc(N3CCN(C)C(=O)C3)n2)cc1OCCCN1CCCC1` [Compound 132], the IC50 on human EHMT2 913-1193 and on EHMT1 was more than 10 µM throughout.
Turning to `COc1ccc(Nc2cc(N(C)CC3CCN(C(C)=O)CC3)ccn2)cc1OCCCN1CCCC1` [Compound 163], the IC50 at human EHMT2 913-1193 and on EHMT1 was more than 10 µM in each case.
`COc1ccc(Nc2cc(NCC3CCN(C(C)=O)CC3)cnn2)cc1OCCCN1CCCC1` [Compound 185]: the IC50 on human EHMT2 913-1193 and on EHMT1 was 1 to 10 µM each time.
Consider `COc1ccc(Nc2nccc(N3CCN(C(C)=O)CC3)n2)cc1OCCCN1CCCC1` [Compound 139], for which the IC50 on human EHMT2 913-1193 and at EHMT1 was more than 10 µM in each case.
On to `COc1ccc(Nc2nccc(NCC3CCN(C)CC3)n2)cc1OCCCNc1ccccc1` [Compound 159], for which the IC50 on human EHMT2 913-1193 and at EHMT1 was more than 10 µM throughout.
On to `COc1ccc(Nc2nccc(NCc3ccc4[nH]ncc4c3)n2)cc1OCCCN1CCCC1` [Compound 164], for which the IC50 at human EHMT2 913-1193 and at EHMT1 was more than 10 µM each time.

Values taken from US20210198277A1, “AMINE-SUBSTITUTED ARYL OR HETEROARYL COMPOUNDS” (Epizyme, Inc., priority 2016, published 2021).
